Test results from patent US20220105157A1, “Compositions and Methods for Promoting Angiogenesis in the Eye” (The Regents of the University of California, priority 2019, published 2022).
Residues, ends and D or L forms follow the SMILES beside them. *: point of attachment. Cbz = O=C(OCc1ccccc1)*; CH2F = FC*

Assays:
[1] = test system: bovine aortic endothelial (BAE) cells; experiment: BAE endothelial cell proliferation assay (alamar blue); type: cell-based; details: for rescue of the cell death phenotype induced by LIF: BAE cells, co-incubation with inhibitor; for reversal of LIF-induced growth inhibition in BAE cells: pre-incubation with inhibitor 1 hour, LIF 10 ng/ml, 6 days
Method: (§1) The bovine endothelial proliferation assays were performed essentially as previously described (63, 64). BCE (1×10^3 cells/well) or BRE (5×10^2 cells/well) cells were seeded in 96-well plates in the culture medium (DMEM-low glucose supplemented with 10% BCS, 2 mM glutamine and antibiotics) plus testing materials with a total volume of 200 μl per well. BAE cells were plated in 96-well plates at a density of 2×10^3 cells in the culture medium (DMEM-low glucose supplemented with 1% BCS and antibiotics) plus testing material with a total volume of 200 μl per well. HRME cells were seeded at a density of 1×10^3 cells/well in gelatin-coated 96-well plates in assay medium (DMEM-low glucose supplemented with 20% FBS and antibiotics) plus testing materials to make a total volume 200 μl per well. For assays involving antibodies or small-molecule inhibitors, inhibitors or vehicle controls were first added and then test materials were added one hour later. After 6 days (unless otherwise specified), cells were incubated with alamar blue for 4 h. Fluorescence was measured at 530 nm excitation wavelength and 590 nm emission wavelength. Each experiment was carried out in duplicate/triplicate and repeated at least three times.

[2] = test system: bovine choroidal endothelial (BCE) cells; experiment: BCE endothelial cell proliferation assay (alamar blue); type: cell-based; set-up: key to BCE cell growth normalized to the vehicle control group: ns, not statistically significant; details: for effect on LIF-induced BCE cell growth: pre-incubation with inhibitor 1 hour, LIF 10 ng/ml, 6 days; for BCE cell growth normalized to the vehicle control group: day 6, n = 3
Method: as §1

[3] = test system: phosphorylation of STAT3, ERK and AKT in BCE cells; experiment: Western blotting of LIF signaling in BCE cells; type: cell-based, bovine; details: pre-incubation 1 hour (baricitinib 2 μM, cobimetinib 150 nM, BEZ235 5 nM); for effect on AKT phosphorylation: with or without LIF 10 ng/ml 15 minutes
Method: (§2) BCE and BAE cells were cultured in growth medium overnight. Growth medium was removed and then cells were washed twice with PBS. Recombinant human LIF was added to cells for 15 minutes, following 3-hour incubation in the following medium: DMEM-low glucose supplemented with 10% BCS, 2 mM glutamine and antibiotics for BCE cells, and DMEM-low glucose supplemented with 1% BCS and antibiotics for BAE cells. […] Cells were then lysed with RIPA lysis buffer (Life Technologies, CAT #89901) plus protease and phosphatase inhibitor cocktail (ThermoFisher Scientific CAT #78440). Protein concentrations in cell lysates were measured with the BCA assay (ThermoFisher Scientific CAT #23227). Equal amount of proteins were subjected to electrophoresis in NuPAGE 4-12% Bis-Tris gels (ThermoFisher Scientific, CAT #NW04125BOX) and then transferred onto PVDF membranes. Membranes were blocked with 5% non-fat milk in TBST at room temperature for 1 hour, incubated with primary antibodies indicated below in TBST containing 0.5% non-fat milk at 4° C. overnight then with secondary HRP-conjugated antibodies (1:2000, GE Healthcare) at room temperature for 1 h. Signals were developed with SuperSignal™ West Pico PLUS Chemiluminescent Substrate (ThermoFisher Scientific). Primary antibodies used: anti-phospho-STAT3 (Cell Signaling, CAT #9131, 1:3000), anti-STAT3 (Cell Signaling, CAT #4904, 1:3000), anti-phospho-ERK (Cell Signaling, CAT #4376, 1:5000), anti-ERK (Cell Signaling, CAT #4695, 1:5000), anti-phospho-AKT Ser473 (Cell Signaling, CAT #4060, 1:2000), anti-AKT (Cell Signaling, CAT #4691, 1:2000) and HRP-conjugated anti-beta-actin (Sigma, CAT #AC-15, 1; 10000).

[4] = test system: phosphorylation of STAT3, ERK and AKT in BAE cells; experiment: Western blotting of LIF signaling in BAE cells; type: cell-based, bovine; details: pretreatment 1 hour (baricitinib 2 μM, cobimetinib 150 nM, BEZ235 5 nM), LIF 10 ng/ml 15 minutes
Method: as §2

[5] = test system: retinal vasculature of mouse eyes; experiment: Intravitreal injection of recombinant proteins in mouse eyes, retinal vessel density; type: in vivo; details: after exposure to 95° C. for 2 hours
Method: Male C57BL/6J mice (6-8 week and P5) were anesthetized with ketamine/Xylazine cocktail. The indicated amounts of recombinant LIF (Sigma, CAT #SRP9001) in 1 μl of PBS and PBS vehicle control were injected intravitreally with a 33-gauge Hamilton syringe. Seven (for adult mice) or 3 (for neonatal mice) days after injection, animals were euthanized, eyes were then enucleated and fixed in 4% paraformaldehyde (PFA) for 15 min. Choroid-sclera complexes and retinas were separated and anti-CD31 immunofluorescence (IF) or lectin labeling was performed to evidence the vasculature by whole mount staining of both retina and choroidal tissues or flat-mounts of retina. For CD31 IF, rat anti-mouse antibody (BD Biosciences, CAT #550274) was diluted 1:100 and incubated overnight at 4° C. After 4-hour incubation with the Alexa Fluor-488-conjugated anti-rat antibody (Life Technologies, CAT #A11006), whole mounts were imaged via the 488 nm channel using Keyence Microscope BZ-X710 (Keyence Corporation, Osaka, Japan) or A1R Confocal STORM super-resolution system (Nikon). For lectin staining, Dylight-488-labeled lectin (Vector Laboratories, CAT #DL-1174) was diluted at 1:200 and images were obtained using A1R Confocal STORM super-resolution system (Nikon). For Quantification of vascular density in choroids and retina was carried out by Image J. Student's t test was used for statistical analysis. Each experiment was repeated three times with similar results each time, and each treatment group consists of 4 or 5 individual samples in every experiment. All animal experimental procedures were approved by the Institutional Animal Care and Use Committee (IACUC) of the University of California San Diego and conducted in accordance with the guidelines of the Animal Care Program (ACP).
Optical coherence tomography angiography (OCTA) imaging of the retina of adult mice was performed 7 days after LIF injection, using a 1300 nm optical coherence tomography (OCT) system developed by Dr. R. K. Wang's group at University of Washington Seattle, in agreement with previously described methodology (66). Briefly, the swept laser operated in single longitude mode with a 90 nm bandwidth centered at 1300 nm and 200 kHz A-line rate was used to scan mouse retina and to generate images of vasculature in a field of view of 1.5×1.5 mm^2. 2500 B-frames were captured at 500 cross-sections with five repeated B-frames at each cross-section. To quantify the retinal vascular density, retinal and choroidal layers in 3D structure OCT scans were separated by the hyper-reflecting retinal pigment epithelium (RPE). Then the en face maximum intensity projection was generated. The vessel density was then determined by calculating the percentages of vessel-covered area in total area of view using the ImageJ software.

## COC(=O)CC[C@H](NC(=O)[C@H](CC(=O)OC)NC(=O)OCc1ccccc1)C(=O)N[C@H](C(=O)N[C@@H](CC(=O)OC)C(=O)CF)C(C)C [Z-DEVD-fmk, Z-DEVD-FMK]
[1]
  rescue of the cell death phenotype induced by LIF: not able rescue

## Cl.Nc1cccc2c(=O)[nH]ccc12 [5-AIQ, 5-AIQ hydrochloride]
[1]
  rescue of the cell death phenotype induced by LIF: not able rescue

## O=C(c1ccc(F)c(F)c1Nc1ccc(I)cc1F)N1CC(O)([C@@H]2CCCCN2)C1 [cobimetinib]
[2]
  effect on LIF-induced BCE cell growth: minimal effects
[3]; then LIF 10 ng/ml 15 minutes
  effect on LIF-induced phosphorylation of ERK MAPK: blocked
  effect on LIF-induced phosphorylation of STAT3: no effects
[3]
  effect on AKT phosphorylation: no effects
[4]
  effect on LIF-induced phosphorylation of ERK: effectively repressed

## O=C(NCc1ccccc1)[C@H](Cc1ccccc1)NC(=O)[C@@H]1O[C@@H]1C(=O)NCCc1ccc(O)cc1 [CAA0225]
[1]
  reversal of LIF-induced growth inhibition in BAE cells: repressed LIF-induced growth inhibition in BAE cells although by less extent

## CCCNC(=O)[C@H]1O[C@@H]1C(=O)N[C@H](C(=O)N1CCC[C@H]1C(=O)OC)[C@@H](C)CC [CA074me, CA-074 me]
[1]
  reversal of LIF-induced growth inhibition in BAE cells: alleviated LIF-induced growth inhibition

## IGFBP3: recombinant IGFBP3, a secreted protein previously shown to be an angiogenesis inhibitor
[1]
  BAE cell growth: had no effects

## IL-8: recombinant human IL-8
[2]
  stimulation of BCE cell growth (mitogenic activity): fail to stimulate BCE cell growth
[2]; 1 ng/ml
  BCE cell growth normalized to the vehicle control group: ns
[2]; 3 ng/ml
  BCE cell growth normalized to the vehicle control group: ns
[2]; 10 ng/ml
  BCE cell growth normalized to the vehicle control group: ns
[2]; 30 ng/ml
  BCE cell growth normalized to the vehicle control group: ns
[2]; 100 ng/ml
  BCE cell growth normalized to the vehicle control group: ns
[2]; 300 ng/ml
  BCE cell growth normalized to the vehicle control group: ns

## PDGF-AA: recombinant human PDGF-AA
[2]
  stimulation of BCE cell growth (mitogenic activity): fail to stimulate BCE cell growth
[2]; 1 ng/ml
  BCE cell growth normalized to the vehicle control group: ns
[2]; 3 ng/ml
  BCE cell growth normalized to the vehicle control group: ns
[2]; 10 ng/ml
  BCE cell growth normalized to the vehicle control group: ns
[2]; 30 ng/ml
  BCE cell growth normalized to the vehicle control group: ns
[2]; 100 ng/ml
  BCE cell growth normalized to the vehicle control group: ns
[2]; 300 ng/ml
  BCE cell growth normalized to the vehicle control group: ns

## heat-inactivated LIF: recombinant LIF heat-inactivated by exposure to 95° C. for 2 hours
[2]; after exposure to 95° C. for 2 hours
  ability to promote mitogenesis in vitro: abolished
[5]
  ability to promote angiogenesis in vivo: abolished

## Cn1c(=O)n(-c2ccc(C(C)(C)C#N)cc2)c2c3cc(-c4cnc5ccccc5c4)ccc3ncc21 [BEZ235, reference compound]
[2]
  effect on LIF-induced BCE cell growth: no effect
[3]
  effect on AKT phosphorylation: only moderate effects
[4]
  effect on LIF-induced phosphorylation of AKT: effectively repressed

## CCCNC(=O)[C@H]1O[C@@H]1C(=O)N[C@H](C(=O)N1CCC[C@H]1C(=O)O)[C@@H](C)CC [CA074, CA-074]
[1]; even at the highest dose tested, 50 μM
  suppression of LIF-induced effects in BAE cells: not able to suppress

## COC(=O)C[C@H](NC(=O)[C@@H](NC(=O)c1ccc2ccccc2n1)C(C)C)C(=O)COc1c(F)cccc1F [Q-VD-OPH, Q-VD(OMe)-OPh]
[1]
  rescue of the cell death phenotype induced by LIF: not able rescue

## COC(=O)C[C@H](NC(=O)[C@H](C)NC(=O)[C@@H](NC(=O)OCc1ccccc1)C(C)C)C(=O)CF [Z-VAD-fmk, Z-VAD-FMK] (Cbz-Val-Ala-Asp(OMe)-CH2F)
[1]
  rescue of the cell death phenotype induced by LIF: not able rescue
